Measurements published in US20050019258A1, “Compound testing method” (priority 2003, published 2005).
Read-outs that look alike come from different tables or passages of the source.

Experiments:
guinea-pig bladder [1] = assay: Ice-water test (IWT) in anaesthetised guinea-pig bladder, effect of RTX treatment; assay type: in vivo
Method: (§1) Anaesthesia was induced in female Dunkin-Hartley guinea-pigs (326-416 g) by exposure to 4% halothane in oxygen. A surgical level of anaesthesia was then obtained by administration of 1.2 g/kg i.p. urethane followed by 40 mg/kg α-chloralose via a catheterised jugular vein. Supplementary doses of urethane (0.05 g/kg i.v.) were given if required. Rectal temperature was maintained between 36.5 and 37° C. via a Harvard homeothermic blanket control unit and additional heating lamp. […] The trachea was cannulated and the animals artificially respired using an Ugo-Basile rodent ventilator. A carotid arterial blood sample (0.3 ml) was analysed for blood gases using a GEM Premier 3000 analyser and the ventilation volume adjusted, with air intake enriched with O2 if necessary, to set the level of blood PO2>70 mmHg, PCO2<40 mmHg and pH between 7.36 and 7.46.
(§2) The urinary bladder was exposed via a midline laparotomy and a double lumen catheter inserted into the lumen through an incision in the dome. The catheter was tied in place below the flanged tip of the outer tubing, followed by closure of the abdominal incision. […] The amplified EUS electromyogram (EUS EMG), the integrated EUS EMG and bladder pressure signals were recorded using Spike2 software (Cambridge Electronic Design). […]

[2] = test system: patients with detrusor hyperreflexia; settings: 13 patients positive at baseline, cited from earlier work
bladder cooling reflex [3] = settings: 0.5 mM menthol in patients; cited from earlier work
bladder cooling reflex [4] = settings: 0.6 mM menthol in cats; cited from earlier work
guinea-pig bladder [5] = assay: Ice-water test (IWT) in anaesthetised guinea-pig bladder, effect of menthol; assay type: in vivo
Method: as §1, §2

C=C(C)[C@]12C[C@@H](C)[C@@]34O[C@](Cc5ccccc5)(O[C@@H]1[C@@H]3C=C(COC(=O)Cc1ccc(O)c(OC)c1)C[C@]1(O)C(=O)C(C)=C[C@@H]41)O2 [RTX, resiniferatoxin]
desensitisation of the 3° C. induced reduction in TV (guinea-pig bladder [1]; 500 nM RTX infused into bladder): Desensitisation | difference of TV to 3° C. vs TV for 38° C. control response before RTX (guinea-pig bladder [1]; 500 nM RTX, 100 min post RTX infusion, 95% C.I. −0.51, 0.20, p>0.05): −0.16 | additional patients in whom IWT became negative ([2]; at 14 days, 50 or 100 nM RTX): 2 | number of cases with negative IWT ([2]; at 90 days post treatment, 50 or 100 nM RTX): 8 cases | number of patients in whom IWT became negative ([2]; immediately after instillation of 50 or 100 nM RTX): 4 patients

CC1CCC(C(C)C)C(O)C1 (stereo not drawn) [menthol]
effect on bladder cooling reflex (shift of threshold temperature towards higher temperatures) (bladder cooling reflex [3]): Potentiation of the bladder cooling reflex | effect on bladder cooling reflex (shift of threshold temperature towards higher temperatures) (bladder cooling reflex [4]): Potentiation of the bladder cooling reflex | threshold volume (TV) for micturition at 3° C. following menthol treatment (guinea-pig bladder [5]; 0.6 mM menthol infused into bladder, 3° C. saline infusion, TV before menthol 1.90 ml, n=4): 0.95 mL | difference in TV at 3° C. after menthol vs before menthol (guinea-pig bladder [5]; 0.6 mM menthol, 95% C.I. −1.33, −0.57, p<0.001): −0.95
